Where “and” joins values, the source holds several entries; their conditions need not be identical. Equal values may be shown once.
Assays:
QR2 = biological target: T1, QR2 (Homo sapiens, UniProt P16083); assay: QR2 activity assay, BNAH fluorescence (standard/primary); format: biochemical; details: for IC50: Figure 2D, readout not stated
T1 construct: purchased Sigma-Aldrich
T1 sequence (P16083 1-231): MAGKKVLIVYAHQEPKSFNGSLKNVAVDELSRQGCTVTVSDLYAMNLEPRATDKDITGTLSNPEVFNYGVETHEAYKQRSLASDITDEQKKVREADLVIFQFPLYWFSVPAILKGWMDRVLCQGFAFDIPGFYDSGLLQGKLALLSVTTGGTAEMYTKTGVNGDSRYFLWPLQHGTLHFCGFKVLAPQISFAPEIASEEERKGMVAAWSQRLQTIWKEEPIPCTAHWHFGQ
From the text: A drug discovery campaign strategy was initiated to screen compounds for QR2-specific, cell-free inhibition and in vitro activity, followed by SAR optimization (Figure 2A) to achieve highly specific and potent QR2 inhibitor synthesis. In order to establish a varied and chemically amenable starting point, we developed a high-throughput QR2 assay (Supplemental Methods) that we screened against a library with approximately 200,000 compounds. […] Compounds that replicated the initial hit result were then assayed similarly against QR1 to evaluate compound specificity (Figure 2B). From the HTS, a chemically tractable and attractive series of compounds containing a sulfone flanked by an amine and a heterocycle were identified and selected for SAR development (Figure 2C, Supplemental Methods, Supplemental Table 1, and Supplemental Table 2). […]
High Throughput Screen (H TS)
The enzymatic activity of QR 2 (10 nM) was measur ed using menadione (both Sigm a -Aldrich) as subst r at e and dihydro- benzylnicotinamide (BNAH; Tocris) as co-substrate(62). The reaction was performed in 50 mM Tri s HCl, 150 mM NaCl 0.01%Tween- 20 pH=8.5 (Sigma-Aldrich) at r oom tem per atur e. Briefl y, 3 µL of menadione alone (200 µM) or a mixture of menadione and QR2 (200 µM of […]
menadione and 10 nM of QR2) were dispensed in 1536-well black Nunc plates (Thermo-Fisher) using aMultidrop™ Combi Reagent Dispenser (Thermo-Fisher) and pre-incubated with compounds for 10min. BNAH (200µM) was t hen added (3 µL) to the reaction using a BioNex Solutions BNX1536plate washer and the plates were incubated for another 10 min. Fluorescence intensity was followed in a PHERAstar FS multi-mode plate reader (BMG Labtech) us i ng an optic module with excitation at 360 nm and emission at 470 nm. The initial HTS includedapproximately 200,000 compounds at a single concentrationof 5 µM. The chemical libraries used were Selleck Chemicals Bioactives, the Drug-like set from Enamine, HitFinder collection from Maybridge, Spectrum Collection from Microsource, Lopa c from Sigma -Aldrich and the diversity set s from Chem Div and Che m Br idge .
Initial ‘‘hit’’ compounds were defined as causing >30% reduction of enzyme activity. Compounds suspected to be fluorescent were re -assayed in an absorbance assay at 350 nm using the same reaction but in a higher volume (100 µL), in a transparent plate (Greiner Bio- One). ‘‘Hit’’ compounds resulting from both the fluorescence and absorbance assay wer e t ested in a concentration- response, and IC50 values were de t er mi ne d. In parallel, the same concentration response methodologywas appliedin a selectivity assay where QR2 enzymewas replaced byQR1 […]
Chromatography System, with UV/Vis detector 2489, using XBridge® Prep C18 10 μm 10x250 mm […]
was monitored by Wat er s UPLC-MS system: Acquity UPLC® H class with PDA detector, and using […]

THLE-2 cells = assay: ATP depletion cell toxicity assay (CellTiter Glo), 72 h; format: cell-based; details: for cell viability, Cell-Titer-Glo (replicates): THLE2, 72 hour, in % (unit assumed); for LD50, cell viability (Cell-Titer-Glo): THLE2 cells, 72 hour incubation
Description: H2DCFDA ROS assay was carried out according to established protocols, with some adjustment (Supplemental Methods) ([6]). Cell toxicity was measured via ATP depletion (CellTiter Glo, Promega) in THLE-2 cells (ATCC, CRL-2706), following 72 hours of exposure to the test compounds, and cell viability was assessed using XTT assay (Biological Industries) according to manufacturers protocols. CETSA was performed as previously described ([53]) with some modifications, using QR2 (Santa Cruz, sc-271665) and SOD1 (Santa Cruz, sc-17767) antibodies. SDS-PAGE and immunoblot imaging were carried out as previously described ([55]), using Tubulin (Sigma-Aldrich, SAB4500087), QR2 (Santa Cruz, sc-271665), NDUFA9 (AbCam, ab14713) and CD73 (Cell Signaling Technology, D7F9A) antibodies.
with a 100 µM as upper limit, for 72 h. […]
Cellular The rm a l Shift Assay (CETSA) […]
17767). Analysis of the results wer e done in accordance to Jafari et a l .( 63) us i ng GraphPad Pr i sm software.

`Cc1ccc(-c2cn3cccc(C)c3n2)cc1S(=O)(=O)N1CCNCC1` [YB-537] was tested, and the “binding affinity to QR2 than to QR1” value (QR2) was “more than 6,000 fold”, the “specificity to QR2 compared with QR1” value (QR2) was “more than 6,000 times” and the IC50 (QR2) was 3 nM. The “cell viability, Cell-Titer-Glo (replicates)” value (“cell viability, Cell-Titer-Glo” below) (THLE-2 cells; inhibitor 3.9e-7 M) was 89.3 and 104.9 and 105.3, the “cell viability, Cell-Titer-Glo” value (THLE-2 cells; inhibitor 7.8e-7 M) was 93.6 and 99.6 and 103.9 and the “cell viability, Cell-Titer-Glo” value (THLE-2 cells; inhibitor 1.5625e-6 M) was 96.4 and 109.9 and 90.1. The “cell viability, Cell-Titer-Glo” value (THLE-2 cells; inhibitor 3.125e-6 M) was 92.2 and 96.1 and 103.0, the “cell viability, Cell-Titer-Glo” value (THLE-2 cells; inhibitor 6.25e-6 M) was 89.6 and 101.5 and 85.3 and the “cell viability, Cell-Titer-Glo” value (THLE-2 cells; inhibitor 1.25e-5 M) was 95.7 and 97.8 and 93.2. The “cell viability, Cell-Titer-Glo” value (THLE-2 cells; inhibitor 2.5e-5 M) was 93.9 and 92.0 and 88.2, the “cell viability, Cell-Titer-Glo” value (THLE-2 cells; inhibitor 5e-5 M) was 91.4 and 92.2 and the “cell viability, Cell-Titer-Glo” value (THLE-2 cells; inhibitor 0.0001 M) was 81.5 and 82.7 and 80.4. The “LD50, cell viability (Cell-Titer-Glo)” value (THLE-2 cells) was > 100 µM.
For `Cc1ccc(-c2cn3cccc(C)c3n2)cc1S(=O)(=O)N1CCC(C)CC1` [YB-800], the IC50 (QR2) was 30 nM, the “cell viability, Cell-Titer-Glo” value (THLE-2 cells; inhibitor 3.9e-7 M) was 96.3 and 111.4 and the “cell viability, Cell-Titer-Glo” value (THLE-2 cells; inhibitor 7.8e-7 M) was 111.0 and 92.8. The “cell viability, Cell-Titer-Glo” value (THLE-2 cells; inhibitor 1.5625e-6 M) was 96.0, the “cell viability, Cell-Titer-Glo” value (THLE-2 cells; inhibitor 3.125e-6 M) was 102.0 and 98.8 and the “cell viability, Cell-Titer-Glo” value (THLE-2 cells; inhibitor 6.25e-6 M) was 95.3 and 97.2. The “cell viability, Cell-Titer-Glo” value (THLE-2 cells; inhibitor 1.25e-5 M) was 87.5 and 81.6, the “cell viability, Cell-Titer-Glo” value (THLE-2 cells; inhibitor 2.5e-5 M) was 74.8 and 70.3 and the “cell viability, Cell-Titer-Glo” value (THLE-2 cells; inhibitor 5e-5 M) was 54.4 and 53.1. For the same compound, the “cell viability, Cell-Titer-Glo” value (THLE-2 cells; inhibitor 0.0001 M) was 50.5 and 51.2 and the “LD50, cell viability (Cell-Titer-Glo)” value (THLE-2 cells) was 78.401 µM.
In the case of `Cc1ccc(-c2cn3cccc(C)c3n2)cc1S(=O)(=O)N1CCCC1` [YB-808], the IC50 (QR2) is reported as 10 nM, the “cell viability, Cell-Titer-Glo” value (THLE-2 cells; inhibitor 3.9e-7 M) is reported as 96.4 and 99.1 and the “cell viability, Cell-Titer-Glo” value (THLE-2 cells; inhibitor 7.8e-7 M) is reported as 91.2 and 88.9. For the same compound, the “cell viability, Cell-Titer-Glo” value (THLE-2 cells; inhibitor 1.5625e-6 M) was 98.0 and 97.5, the “cell viability, Cell-Titer-Glo” value (THLE-2 cells; inhibitor 3.125e-6 M) was 92.2 and 93.9 and the “cell viability, Cell-Titer-Glo” value (THLE-2 cells; inhibitor 6.25e-6 M) was 94.7 and 93.5. The “cell viability, Cell-Titer-Glo” value (THLE-2 cells; inhibitor 1.25e-5 M) was 90.2 and 79.5, the “cell viability, Cell-Titer-Glo” value (THLE-2 cells; inhibitor 2.5e-5 M) was 79.2 and 86.7 and the “cell viability, Cell-Titer-Glo” value (THLE-2 cells; inhibitor 5e-5 M) was 66.4 and 67.9. For the same compound, the “cell viability, Cell-Titer-Glo” value (THLE-2 cells; inhibitor 0.0001 M) was 22.2 and 20.2 and the “LD50, cell viability (Cell-Titer-Glo)” value (THLE-2 cells) was 59.704 µM.

Reference: publication PMC10541198, “Specific quinone reductase 2 inhibitors reduce metabolic burden and reverse Alzheimer’s disease phenotype in mice” (The Journal of Clinical Investigation, 2023)
